# Tested on: PRAME 425-433
# Assay: IFN-gamma ELISA on splenocytes restimulated with native peptide after intra-lymph-node immunization
# Type: in vivo, HHD transgenic mice
# Conditions: different concentrations of plasmid or peptide (peptide together with dsRNA), inguinal lymph nodes, days 0, 3, 14 and 18; spleens 10 days after immunization; FIG. 4 in pg IFN-gamma/ml
# Excerpt: HHD transgenic mice (n=4/group) were immunized with a PRAME 425-433 expressing plasmid (as described in U.S. Provisional Application No. __/______ (Atty Docket No. MANNK.053PR), entitled METHODS AND COMPOSITIONS TO ELICIT MULTIVALENT IMMUNE RESPONSES AGAINST DOMINANT AND SUBDOMINANT EPITOPES, EXPRESSED ON CANCER CELLS AND TUMOR STROMA, filed on date even with this disclosure, which is hereby incorporated by reference in its entirety) or peptide together with dsRNA (different concentrations of plasmid or peptide, by direct inoculation into the inguinal lymph nodes with 25 μl of plasmid or peptide in PBS/lymph node, on days 0, 3, 14 and 18. Spleens were harvested at 10 days after completion of immunization, splenocytes were incubated over 48 hours with native peptide (10 μg/ml), supernatants harvested and IFN-gamma concentration measured by ELISA.
substance,measurement,value
"PRAME 425-433 peptide: PRAME 425-433 peptide given together with dsRNA into inguinal lymph nodes (SLLQHLIGL; UniProt P78395 425-433, looked up, fragment)",magnitude of the immune response (IFN-gamma concentration measured by ELISA),"the larger the dose of peptide, the lower the immune response"

# Reference: patent US20050287068A1, “Efficacy of active immunotherapy by integrating diagnostic with therapeutic methods” (priority 2004, published 2005)
